Test results reported in publication PMC11579512, “Deoxybouvardin-glucoside induces apoptosis in non-small cell lung cancer cells by targeting EGFR/MET and AKT signaling pathway” (EXCLI Journal, 2024).

Columns and labels:
Type in all cases: cell-based, human
PARP [1] = assay: Immunoblot PARP in HCC827 and HCC827GR cells; conditions: for PARP protein Ratio: DBG 0 nM = 1.00
Protocol: (§1) HaCaT cells were grown in DMEM, whereas HCC827 and HCC827GR cells were grown in RPMI 1640. All culture media were supplemented with FBS (10 %) and P/S (1 %), and the cells were grown at 37 °C in 5 % CO2.
(§2) Cells were lysed in RIPA buffer, and protein concentration was determined using a Bio-Rad DC Protein Assay kit (Bio-Rad, Hercules, CA, USA). Protein samples from the cell lysates were resolved by sodium dodecyl sulfate-polyacrylamide gel electrophoresis and then transferred onto polyvinylidene fluoride membranes. The membranes were blocked with 3 % or 5 % skim milk and then incubated at 4 °C overnight with the indicated primary antibodies, followed by the corresponding horseradish peroxidase-conjugated secondary antibodies at RT for 2 h. Protein bands were visualized using western blotting luminol reagent solution and ImageQuant LAS 500 (GE Healthcare, Uppsala, Sweden). The density of the bands was quantified using ImageJ software (NIH, Bethesda, MD, USA).

p-AKT (S473) = assay: Western blot p-AKT (S473) in HCC827 and HCC827GR cells; conditions: DBG 3, 6, 12 nM, 48 h
Protocol: as §1, §2

PARP [2] = assay: Immunoblot PARP with NAC pretreatment, HCC827 and HCC827GR cells; conditions: for PARP protein Ratio: control = 1.00
Protocol: as §1, §2

HCC827GR cells = assay: Cell cycle distribution (Muse, PI), HCC827GR; conditions: 48 h
Protocol: as §1
Cell cycle distribution analysis was performed using a Muse™ Cell Cycle Kit (MCH100106, Merck Millipore, Billerica, MA) based on propidium iodide (PI) staining. The cells were collected, fixed in 70 % ethanol overnight at -20 °C, and then stained with a Muse™ Cell Cycle Reagent at RT for 30 min in the dark. The cell cycle distribution was measured using a Muse™ Cell Analyzer (Merck Millipore).

## COc1ccc(C[C@H]2C(=O)N[C@@H](C)C(=O)N(C)[C@H]3Cc4ccc(cc4)Oc4cc(ccc4O[C@@H]4O[C@H](CO)[C@@H](O)[C@H](O)[C@H]4O)C[C@@H](C(=O)N[C@H](C)C(=O)N[C@@H](C)C(=O)N2C)N(C)C3=O)cc1 [DBG, deoxybouvardin glucoside]
PARP [1]; HCC827, DBG 3 nM, DBG 0 nM 0.88
  PARP protein/actin: 0.17
PARP [1]; HCC827, DBG 3 nM
  PARP protein Ratio: 0.20
PARP [1]; HCC827, DBG 6 nM, DBG 0 nM 0.88
  PARP protein/actin: 0.14
PARP [1]; HCC827, DBG 6 nM
  PARP protein Ratio: 0.16
PARP [1]; HCC827, DBG 12 nM, DBG 0 nM 0.88
  PARP protein/actin: 0.15
PARP [1]; HCC827, DBG 12 nM
  PARP protein Ratio: 0.17
PARP [1]; HCC827GR, DBG 3 nM, DBG 0 nM 0.78
  PARP protein/actin: 0.46
PARP [1]; HCC827GR, DBG 3 nM
  PARP protein Ratio: 0.59
PARP [1]; HCC827GR, DBG 6 nM, DBG 0 nM 0.78
  PARP protein/actin: 0.23
PARP [1]; HCC827GR, DBG 6 nM
  PARP protein Ratio: 0.29
PARP [1]; HCC827GR, DBG 12 nM, DBG 0 nM 0.78
  PARP protein/actin: 0.12
PARP [1]; HCC827GR, DBG 12 nM
  PARP protein Ratio: 0.16
PARP [1]; HCC827 and HCC827GR, DBG
  level of whole PARP: decreased
p-AKT (S473)
  phosphorylation level of AKT: decreased
PARP [2]; HCC827, DBG 12 nM, control 0.96
  PARP protein/actin: 0.09
PARP [2]; HCC827, DBG 12 nM
  PARP protein Ratio: 0.09
PARP [2]; HCC827, NAC 4 mM + DBG 12 nM, control 0.96
  PARP protein/actin: 1.09
PARP [2]; HCC827, NAC 4 mM + DBG 12 nM
  PARP protein Ratio: 1.14
PARP [2]; HCC827GR, DBG 12 nM, control 0.99
  PARP protein/actin: 0.21
PARP [2]; HCC827GR, DBG 12 nM
  PARP protein Ratio: 0.22
PARP [2]; HCC827GR, NAC 4 mM + DBG 12 nM, control 0.99
  PARP protein/actin: 0.81
PARP [2]; HCC827GR, NAC 4 mM + DBG 12 nM
  PARP protein Ratio: 0.82
HCC827GR cells; DBG 3 nM, mean of 3 samples
  G0/G1 distribution: 53.10
  G2/M distribution: 37.67
  S distribution: 9.23
HCC827GR cells; DBG 3 nM, sample 1
  G0/G1 distribution: 51.80
  G2/M distribution: 39.10
  S distribution: 9.10
HCC827GR cells; DBG 3 nM, sample 2
  G0/G1 distribution: 53.80
  G2/M distribution: 36.60
  S distribution: 9.60
HCC827GR cells; DBG 3 nM, sample 3
  G0/G1 distribution: 53.70
  G2/M distribution: 37.30
  S distribution: 9.00
HCC827GR cells; DBG 6 nM, mean of 3 samples
  G0/G1 distribution: 54.77
  G2/M distribution: 36.33
  S distribution: 8.90
HCC827GR cells; DBG 6 nM, sample 1
  G0/G1 distribution: 54.30
  G2/M distribution: 36.50
  S distribution: 9.20
HCC827GR cells; DBG 6 nM, sample 2
  G0/G1 distribution: 53.10
  G2/M distribution: 37.80
  S distribution: 9.10
HCC827GR cells; DBG 6 nM, sample 3
  G0/G1 distribution: 56.90
  G2/M distribution: 34.70
  S distribution: 8.40
HCC827GR cells; DBG 12 nM, mean of 3 samples
  G0/G1 distribution: 56.93
  G2/M distribution: 34.27
  S distribution: 8.77
HCC827GR cells; DBG 12 nM, sample 1
  G0/G1 distribution: 57.50
  G2/M distribution: 33.40
  S distribution: 9.00
HCC827GR cells; DBG 12 nM, sample 2
  G0/G1 distribution: 56.20
